From patent US20200069609A1 (WIGEN BIOMEDICINE TECHNOLOGY (SHANGHAI) CO., LTD., priority 2017, published 2020)

Legend:
GST-LC3B = biological target: T1, GST-LC3B (Homo sapiens, UniProt Q9GZQ8); assay: Fluorescence polarization (FP) assay, GST-LC3B with FITC-labeled peptide; format: binding; details: GST-LC3B 180 nM, FITC-labeled peptide 18 nM
T1 construct: This fusion protein was used directly in the fluorescence polarization assay; made in house
Protocol: (§1) GST-LC3B (1-125) (SEQ ID NO: 2) and each mutant protein were expressed by IPTG induction in DE3 competent cells at 16° C. After collecting and resuspending DE3 competent cells, the cells were sonicated and centrifuged. The resulted supernatant was hanged on the column (GSTrap FF, GE), followed by eluting with glutathione-containing eluant, and then the target protein was produced by gel filtration chromatography. This fusion protein was used directly in the fluorescence polarization assay. The proteins used in the protein thermal shift assay, mass spectrometry, and protein crystallization experiments were produced by PP enzyme or thrombin digestion and the following gel filtration chromatography to the GST-fusion protein obtained by the above method.
Recombinant protein GST-LC3B (final concentration 180 nM) (SEQ ID NO: 2) and N-terminal FITC-labeled peptide (SEQ ID NO: 5, final concentration 18 nM) were placed in FP buffer solution (50 mM HEPES pH 7.5, 0.1 mg/ml BSA and 1 mM DTT), into which the compound gradually diluted by the FP buffer was added, then the resulted mixture was incubated in dark at 25° C. Fluorescence polarization values were monitored (PerkinElmer Envision, the wavelength of the […]) and the IC50 values were calculated by the GraphPad Prism 6.0 program.
Representation of the IC50 value of the compounds: “[…]<IC50≤1 mM” is considered as having low activity (+) against LC3B. “15 μM<<IC50≤100 μM” of the compound is considered as having moderate activity (++) against LC3B. “3 μM<IC50≤15 μM” is considered as having high activity (+++) against LC3B. “IC50≤3 μM” is considered as having higher activity (++++) against LC3B.

[1] = test system: LC3B mutants K8A, K30A, K39A, K42A, K51A, K65A, K103A, K122A; assay: Protein thermal shift assay on lysine-to-alanine mutants other than K49A; format: binding, human; details: all lysine-to-alanine mutants except K49A; protein 4 μM, compound 40 μM
Protocol: (§2) The protein thermal shift assay is used to test the effect of compounds on the thermodynamic stability of proteins via the Quant Studio 6 Flex Real-Time PCR system. Protein LC3B (1-125) (SEQ ID NO: 3) and each mutant protein (SEQ ID NO: 7-15) (final concentration 4 μM), environmentally sensitive dye (5×SYPRO orange, Invitrogen) and compound (final concentration 40 μM) were mixed in the buffer solution (50 mM HEPES pH 7.5, 1 mM DTT) to a total volume of 20 μL. The sample was heated from 25° C. to 95° C. with a heating rate of 3%. Changes in fluorescence intensity were monitored and each melting temperature (Tm), represented by AT in the unit of ° C., was calculated by Protein Thermal Shift Software 1.1 (ABI).
(§3) LC3B totally has 9 lysines, and for investigating the site selectivity of Compound A, all the 9 lysines were mutated to alanine (K8A, K30A, K39A, K42A, K49A, K51A, K65A, K103A, K122A; SEQ ID NO:7-15).

LC3B K49A mutant = biological target: T2, LC3B K49A mutant (Homo sapiens, UniProt Q9GZQ8, K49A); assay: Protein thermal shift assay on K49A mutant; format: binding
T2 construct: GST (N, cleaved yes); made in house
Protocol: as §2, §3

LC3B (2-119) = biological target: T3, LC3B (2-119) (Homo sapiens, UniProt Q9GZQ8); assay: Crystal complex structure of LC3B protein and small molecule; details: crystal soaked with compound 1-5 mM
T3 construct: GST (N, cleaved yes); made in house
Protocol: A vacant protein crystal of LC3B (2-119) (SEQ ID NO: 4) was obtained by the sit-drop method, and then the crystal was taken out and soaked in a bath containing Compound A with a final concentration of 1-5 mM. The diffraction data were collected at the 19U1 line station of Shanghai Synchrotron Radiation Facility. And the diffraction data were integrated by XDS software and then compressed by Aimless module in CCP4. The LC3B protein structure with a PDB number of 3VTU was used as a template to perform molecular replacement by Phaser module to obtain the initial phase information, and then final refinement was performed by PHENIX and COOT.

LC3B (1-125) [2] = biological target: T4, LC3B (1-125) (Homo sapiens, UniProt Q9GZQ8); assay: Protein thermal shift assay; format: binding; details: protein 4 μM, compound 40 μM
T4 construct: GST (N, cleaved yes); made in house
Protocol: as §1, §2

Hela cells = assay: Immunofluorescence staining of autophagosomes in Hela cells; format: cell-based; details: 30 μM or 100 μM for 12 h, then serum-free starvation 24 hours; compared with control group
Protocol: For further investigating the effects of compounds on cell autophagosomes, Hela cells were seeded onto glass coverslips in 6-well plate and cultured until the cells being in good conditions, which were treated with 30 μM or 100 μM of Compound B for 12 h, then replaced to a serum-free medium and starved for 24 hours. The cells were pre-cooled for 10 minutes, then punched with 0.2% Triton X-100 and stood at room temperature for 10 minutes. Next, the cells were blocked with PBS containing 2.5% BSA and incubated overnight with a 4 degree anti-LC3B primary antibody, after which the primary antibody was recognized with a fluorescent secondary antibody, the nuclei were stained with DAPI and photographed under a microscope.

LC3B (1-125) [3] = biological target: T4, LC3B (1-125); assay: Mass spectrometry of LC3B incubated with compound; details: trypsin digest, b and y type ions
Protocol: For further verifying the covalent binding, LC3B (1-125) (SEQ ID NO: 3) protein was separately incubated with compounds B, C and D for mass spectrometry.
After incubating the compound and protein for a given period of time, the product was separated by gel electrophoresis, and the protein having an appropriate size was digested by trypsin. The resulting polypeptide was dissolved and loaded onto a C18 reverse-phase column coupled to an EASY-nLC 1000 system. The polypeptide was eluted to perform mass spectrometry and Mascot search.

Row | IC50 (GST-LC3B; Table 1, 25° C.) | ΔT (melting temperature shift) (LC3B (1-125) [2]; Table 1) | IC50 (GST-LC3B; Table 2, comparative compounds) | ΔT (melting temperature shift) (LC3B (1-125) [2]; Table 2, comparative compounds) | Compound | also measured
1 | 4.83 µM | 9.83 °C | – | – | 5-phenyl-2- (((2-(4-(benzoyl) piperazin-1-yl) ethyl)amino) methylene) cyclohexane-1,3- dione [G] | –
2 | – | – | – | – | Cc1ccc(NC(=O)CN2CCN(CCNCC3C(=O)CC(c4ccc(C)cc4)CC3=O)CC2)cc1 (stereo not drawn) [Compound B] | cell autophagosomes (anti-LC3B immunofluorescence) (Hela cells): cell autophagosomes accumulated
3 | 28.8 µM | 2.87 °C | – | – | NC=C1C(=O)CC(c2ccccc2)CC1=O (stereo not drawn) [Compound C, 2-(aminomethyl-ene)-5-phenyl-cyclohexane-1,3-dione] | covalent modification of LC3B by mass spectrometry (LC3B (1-125) [3]): covalently modified the lysine at position 49 in LC3B
4 | 1.46 µM | 10.82 °C | – | – | COc1ccc(C2CC(=O)C(=CN(C)C)C(=O)C2)cc1 (stereo not drawn) [Compound D, 2-((Dimethylamino)methyl-ene)-5-(4-methoxyphenyl) cyclohexane-1,3-dione] | covalent modification of LC3B by mass spectrometry (LC3B (1-125) [3]): covalently modified the lysine at position 49 in LC3B
5 | 0.51 µM | 13.4 °C | – | – | O=C1CC(c2cccc3[nH]ccc23)CC(=O)C1=CO (stereo not drawn) [Compound I, 2-(hydroxy-methylene)-5-(1H-indol-4-yl)cyclohexane-1,3-dione] | covalent linkage in crystal complex (LC3B (2-119)): covalently linked to the lysine residue (ε-amino group) at position 49 in LC3B
6 | 6.54 µM | – | – | – | CCNC(=S)N1CCN(CCNC=C2C(=O)CC(c3ccccc3)CC2=O)CC1 (stereo not drawn) [F, 5-phenyl-2-(((2-(4-(ethyl-aminothiocarbonyl)piperazin-1-yl)ethyl)amino)methylene) cyclohexane-1,3-dione] | –
7 | 5 µM | – | – | – | Cc1ccc(C2CC(=O)C(=CNCCN3CCN(C(=O)C(C)C)CC3)C(=O)C2)cc1 (stereo not drawn) [H] | –
8 | – | – | 46 µM | 0 °C | CC1=CCC(C(=O)O)C(C(=O)Nc2ccc(-c3nc4ccc(C)cc4s3)cc2)C1 (stereo not drawn) [compound 1, reference compound] | –
9 | – | – | 50 µM | 0 °C | Cc1ccc(C(=O)O)c(C(=O)Nc2ccc(-c3nc4ccc(C)cc4s3)cc2)c1 [compound 2, reference compound] | –
10 | – | – | 28 µM | 2.1 °C | CCOc1c(I)cc(/C=N\Nc2ccc(C(=O)O)cc2)cc1OC [compound 3, reference compound] | –
11 | – | – | 28 µM | 1.8 °C | Cc1cc(NS(=O)(=O)c2ccc(NC(=O)c3ccc(C(=O)Nc4ccc(S(=O)(=O)Nc5cc(C)on5)cc4)cc3)cc2)no1 [compound 4, reference compound] | –
12 | – | – | 47 µM | 0 °C | Cc1ccc2c(C)c(C(=O)Nc3ccc(S(=O)(=O)Nc4onc(C)c4C)cc3)oc2c1 [compound 6, reference compound] | –
13 | – | – | – | – | LBP2: positive control polypeptide, LBP2 (SEQ ID NO: 6) (GGDDDWTHLSSKEVD; LBP2) [reference compound] | thermal shift of LC3B mutants [1]: significant heat shift; thermal shift of LC3B K49A mutant (LC3B K49A mutant; K49A mutant, protein 4 μM, compound 40 μM): significant heat shift

Row | Compound | IC50 (GST-LC3B; Table 1, 25° C.) | ΔT (melting temperature shift) (LC3B (1-125) [2]; Table 1) | IC50 (GST-LC3B; Table 2, comparative compounds) | ΔT (melting temperature shift) (LC3B (1-125) [2]; Table 2, comparative compounds) | also measured
14 | 2-((Dimethyl amino)methyl- ene)-5-(tlhio- phen-2-yl)cyclo- hexane-1,3- dione [Compound A] | 1.56 µM | 10.37 °C | – | – | thermal shift of LC3B mutants [1]: significant thermal shift; site selectivity for lysine at position 49 in LC3B (LC3B K49A mutant; concluded from thermal shift of the 9 lysine mutants): selectively modify the lysine at position 49; covalent linkage in crystal complex (LC3B (2-119)): covalently linked to the lysine residue (ε-amino group) at position 49 in LC3B
15 | Cc1ccc(NC(=O)CN2CCN(CCNC=C3C(=O)CC(c4ccccc4)CC3=O)CC2)cc1 (stereo not drawn) [E] | 5 µM | 10.21 °C | – | – | –
